In the supplement of paper PMC10307832:

Experiments:
Assay in all cases: relative viability (nuclei count vs DMSO), 5 days (fraction); higher = more cells survive
[1] = compound: CC1=CC(=CC=C1)NC2=NC(=CS2)C3=CC=NC=C3 + CC(=O)Nc1cccc(-n2c(=O)n(C3CC3)c(=O)c3c(Nc4ccc(I)cc4F)n(C)c(=O)c(C)c32)c1 [Trametinib] (partner 0.02 µM)
Method in brief: (§1)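 The day after seeding in 1536-well plates, lung cancer cell lines were treated by pin tool with a single drug, or with a fixed anchor-drug dose together with five library-drug doses (not always all listed) in √10 steps. After 5 days, a combined fix-and-stain solution (final 0.05% Triton X-100, 1% formaldehyde, 1 ug/ml Hoechst) was added. Nuclei counted on 4× images gave relative viability as treated counts over vehicle counts, reported as the median of duplicate plates.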

[2] = compound: CC1=CC(=CC=C1)NC2=NC(=CS2)C3=CC=NC=C3 + CC(=O)c1c(C)c2cnc(Nc3ccc(N4CCNCC4)cn3)nc2n(C2CCCC2)c1=O [Palbociclib] (partner 0.5 µM)
Method in brief: as §1

[3] = compound: CC1=CC(=CC=C1)NC2=NC(=CS2)C3=CC=NC=C3 + C[C@]1(O)C[C@@H](c2nc(-c3ccc4ccc(-c5ccccc5)nc4c3)c3c(N)nccn32)C1 [Linsitinib] (partner 1 µM)
Method in brief: as §1

[4] = compound: CC1=CC(=CC=C1)NC2=NC(=CS2)C3=CC=NC=C3 + CC1(C)CCC(c2ccc(Cl)cc2)=C(CN2CCN(c3ccc(C(=O)NS(=O)(=O)c4ccc(N[C@H](CCN5CCOCC5)CSc5ccccc5)c(S(=O)(=O)C(F)(F)F)c4)cc3)CC2)C1 [Navitoclax] (partner 0.5 µM)
Method in brief: as §1

Cell Line	relative viability ([1]; first compound 0.08 µM)	relative viability ([1]; first compound 0.253 µM)	relative viability ([1]; first compound 0.8 µM)	relative viability ([1]; first compound 2.53 µM)	relative viability ([1]; first compound 8 µM)	relative viability ([2]; first compound 0.08 µM)	relative viability ([2]; first compound 0.253 µM)	relative viability ([2]; first compound 0.8 µM)	relative viability ([2]; first compound 2.53 µM)	relative viability ([2]; first compound 8 µM)	relative viability ([3]; first compound 0.08 µM)	relative viability ([3]; first compound 0.253 µM)	relative viability ([3]; first compound 0.8 µM)	relative viability ([3]; first compound 2.53 µM)	relative viability ([3]; first compound 8 µM)	relative viability ([4]; first compound 0.08 µM)	relative viability ([4]; first compound 0.253 µM)	relative viability ([4]; first compound 0.8 µM)	relative viability ([4]; first compound 2.53 µM)	relative viability ([4]; first compound 8 µM)
NCI-H358	0.121	0.141	0.133	0.142	0.136	0.132	0.15	0.151	0.144	0.129	0.733	0.798	0.639	0.8	0.666	–	–	–	–	–
NCI-H522	0.79	0.66	0.832	0.789	0.878	1.19	0.797	0.92	0.954	0.947	–	–	–	–	–	–	–	–	–	–
NCI-H596	0.731	0.761	0.575	0.642	0.586	–	–	–	–	–	1.03	0.995	0.764	0.991	0.806	0.935	0.943	0.725	0.942	0.643
NCI-H650	0.837	1.07	1.04	0.956	0.964	0.256	0.339	0.322	0.342	0.371	0.659	0.739	1.13	–	1.06	–	–	–	–	–
NCI-H661	0.478	0.583	0.579	0.54	0.48	0.433	0.395	0.391	0.386	0.351	0.589	0.577	0.577	0.63	0.643	–	–	–	–	–
NCI-H1299	–	–	–	–	–	–	–	–	–	–	0.93	0.985	0.936	0.928	0.928	0.981	0.99	0.986	1.07	1.01
NCI-H1563	–	–	–	–	–	–	–	–	–	–	1.11	1.12	1.19	1.29	1.18	–	–	–	–	–
NCI-H1648	0.353	0.569	0.444	0.471	0.588	0.242	0.263	0.281	0.295	0.302	–	–	–	–	–	–	–	–	–	–
NCI-H1650	0.52	0.319	0.555	0.429	0.333	0.278	0.281	0.449	0.235	0.239	–	–	–	–	–	1.07	0.938	0.935	1.13	0.811
NCI-H1703	–	–	–	–	–	–	–	–	–	–	0.733	0.632	0.64	0.732	0.555	0.92	1.13	1.38	1.26	1.07
NCI-H2170	0.945	0.935	0.833	0.86	0.668	0.358	0.403	0.358	0.435	0.299	–	–	–	–	–	0.631	0.575	0.538	0.545	0.426
NCI-H2342	0.686	0.729	0.695	0.74	0.732	0.455	0.491	0.557	0.503	0.497	–	–	–	–	–	–	–	–	–	–
SW 900	0.518	0.539	0.913	0.508	0.667	0.508	0.464	0.49	0.477	0.46	–	–	–	–	–	–	–	–	–	–
